The test system of the test is cancer cells. Briefly: Tumor cell necrosis of cancer cells versus normal cells (general statement). In kind it is cell-based. The following applies: cancer cells vs normal cells; statement in the description, no data shown. The method, then:
PNC-27 or PNC-28 is incubated with 6×10^6 cancer cells, for example, Mia-PaCa-2 cells, for 5 days at concentrations ranging from 0.001-750 μM. At different timepoints following treatment the cells are assessed for signs of necrosis, for example, membrane blebbing and disruption and formation of cell clumps coalescing into aggregates of cellular debris. Percent cell death is determined by measuring trypan blue dye uptake. Cancer cells are also treated with the negative control peptide PNC-29 and, separately, a peptide having only the p53 derived portion of PNC-27 or PNC-28 that cannot traverse the cell membrane due to the lack of the MRP peptide, administered at the same concentration as the test peptide. The effect of these control peptides on cellular growth, morphology and viability is determined.
As an additional control, PNC-27 or PNC-28 is combined with untransformed BMRPA1 acinar cells and with the untransformed breast epithelial cell line, MCF-10-2A at a concentration ranging from 0.001-750 μM to determine if the peptide is lethal to normal cell growth.

Drawing on patent US12239720B2, “Compositions for use in lysis of selective cancer cells” (ONCOLYZE, INC., priority 2018, dated 2025), this text covers tumor cell necrosis for 2 sequences.

In the case of “ETFSDLWKLLKKWKMRRNQFWVKVQRG [PNC-28, p53 aa17-26-MRP]”, the tumor cell necrosis entry is “induce tumor cell necrosis of cancer cells, but not normal cells”.

“PPLSQETFSDLWKLLKKWKMRRNQFWVKVQRG [PNC-27]”: the tumor cell necrosis result is “induce tumor cell necrosis of cancer cells, but not normal cells”.
